Measurements taken from patent publication US9260429B2, “Pyrido[3,4-B]indoles and methods of use” (Medivation Technologies, Inc., priority 2008, dated 2016).
Where two headings read alike, the source gives them in different places.

Tests used:
[1] = target: T1, human recombinant adrenergic α2B receptor (Homo sapiens, UniProt P18089); assay: Adrenergic α2B radioligand binding ([3H]Rauwolscine)
T1 construct: expressed in transfected cells; host or cells: CHO-K1 cells
T1 sequence (P18089 1-450): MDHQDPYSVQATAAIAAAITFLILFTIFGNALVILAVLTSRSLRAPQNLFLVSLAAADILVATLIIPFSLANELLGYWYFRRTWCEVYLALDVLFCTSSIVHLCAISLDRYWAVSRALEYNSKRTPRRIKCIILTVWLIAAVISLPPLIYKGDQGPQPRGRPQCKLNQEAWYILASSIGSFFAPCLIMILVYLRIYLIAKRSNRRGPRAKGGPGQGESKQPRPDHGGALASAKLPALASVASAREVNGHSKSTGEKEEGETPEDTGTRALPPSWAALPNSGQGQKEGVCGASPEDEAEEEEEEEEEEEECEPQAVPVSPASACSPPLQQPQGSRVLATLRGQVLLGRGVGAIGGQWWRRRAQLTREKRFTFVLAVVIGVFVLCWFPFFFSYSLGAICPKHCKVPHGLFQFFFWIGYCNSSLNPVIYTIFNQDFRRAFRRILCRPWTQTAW
Method in brief: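 Human α2B receptor expressed in CHO-K1 cells, in 50 mM Tris-HCl pH 7.4, 12.5 mM MgCl2, 1 mM EDTA, 0.2% BSA. Binding of 2.5 nM [3H]Rauwolscine, 60 min at 25° C, filtration; non-specific defined with 10 μM prazosin.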

[2] = target: T2, human recombinant serotonin (5-Hydroxytryptamine) 5-HT2C receptor (Homo sapiens, UniProt P28335); assay: Serotonin 5-HT2C radioligand binding ([3H]Mesulergine)
T2 construct: expressed in transfected cells; host or cells: CHO-K1 cells
T2 sequence (P28335 33-458): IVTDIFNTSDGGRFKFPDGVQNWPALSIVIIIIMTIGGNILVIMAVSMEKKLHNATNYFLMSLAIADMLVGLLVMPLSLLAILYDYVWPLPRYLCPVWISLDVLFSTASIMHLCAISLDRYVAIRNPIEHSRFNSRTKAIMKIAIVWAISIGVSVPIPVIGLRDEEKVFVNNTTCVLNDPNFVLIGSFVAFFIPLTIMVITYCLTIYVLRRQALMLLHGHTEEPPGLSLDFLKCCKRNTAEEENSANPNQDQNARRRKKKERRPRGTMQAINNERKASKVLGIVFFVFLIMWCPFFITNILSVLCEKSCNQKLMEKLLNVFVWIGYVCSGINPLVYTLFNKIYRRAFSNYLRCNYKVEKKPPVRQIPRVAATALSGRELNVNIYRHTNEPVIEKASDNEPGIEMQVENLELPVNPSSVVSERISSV
Method: Compounds of the invention were incubated with 1 nM [^3H]Mesulergine for 60 minutes at 25° C. Non-specific binding was estimated in the presence of 1 μM Mianserin. Receptor proteins were filtered and washed, the filters were then counted to determine [^3H]Mesulergine specifically bound. […] Biochemical assay results are presented as the percent inhibition of specific binding in Table 5.

[3] = target: T3, human recombinant adrenergic α2A receptor (Homo sapiens, UniProt P08913); assay: Adrenergic α2A radioligand binding ([3H]MK-912)
T3 construct: expressed in transfected cells; host or cells: insect Sf9 cells
T3 sequence (P08913 1-465): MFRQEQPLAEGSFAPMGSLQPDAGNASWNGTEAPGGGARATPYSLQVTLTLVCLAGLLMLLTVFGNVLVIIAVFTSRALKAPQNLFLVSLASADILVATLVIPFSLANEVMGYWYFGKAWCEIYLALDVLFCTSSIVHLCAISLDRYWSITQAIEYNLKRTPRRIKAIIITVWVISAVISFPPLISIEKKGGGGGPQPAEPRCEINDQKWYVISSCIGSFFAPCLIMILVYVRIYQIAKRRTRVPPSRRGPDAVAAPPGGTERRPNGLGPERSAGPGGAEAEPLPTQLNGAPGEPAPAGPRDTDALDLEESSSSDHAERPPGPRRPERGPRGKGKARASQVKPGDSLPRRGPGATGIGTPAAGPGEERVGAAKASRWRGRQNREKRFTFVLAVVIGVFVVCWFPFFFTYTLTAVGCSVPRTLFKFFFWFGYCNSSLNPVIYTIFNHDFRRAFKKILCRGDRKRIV
Method in brief: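 Human α2A receptor expressed in Sf9 cells, in Tris-HCl pH 7.4 with 12.5 mM MgCl2 and 2 mM EDTA; 1 nM [3H]MK-912, 60 min at 25 °C. Non-specific binding defined with 10 μM WB-4101; filter counting.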

[4] = target: T4, human recombinant histamine H2 receptor (Homo sapiens, UniProt P25021); assay: Histamine H2 radioligand binding ([125I]Aminopotentidine)
T4 construct: expressed in transfected cells; host or cells: CHO-K1 cells
T4 sequence (P25021 whole entry): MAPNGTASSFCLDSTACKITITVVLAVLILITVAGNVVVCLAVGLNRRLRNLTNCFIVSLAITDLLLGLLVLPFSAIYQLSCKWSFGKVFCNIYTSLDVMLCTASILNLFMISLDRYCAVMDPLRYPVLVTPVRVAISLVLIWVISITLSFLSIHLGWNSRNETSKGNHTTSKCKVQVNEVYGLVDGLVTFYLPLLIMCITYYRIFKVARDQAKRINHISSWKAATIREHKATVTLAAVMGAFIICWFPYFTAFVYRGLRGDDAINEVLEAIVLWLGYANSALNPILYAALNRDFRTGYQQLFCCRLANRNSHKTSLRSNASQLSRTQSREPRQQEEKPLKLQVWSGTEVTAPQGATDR
Method in brief: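 Membranes of CHO-K1 cells expressing human H2 receptor incubated with 0.1 nM [125I]aminopotentidine, 120 min, 25 °C, 50 mM phosphate pH 7.4; nonspecific binding defined with 3 μM tiotidine.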

[5] = 1 h, read-out: Percent Inhibition of ligand binding Adrenergic (1 μM ligand conc.) α2B
[6] = 1 h, read-out: Percent Inhibition of ligand binding Serotonin (1 μM ligand concentration) 5-HT2C
[7] = 1 h, read-out: Percent Inhibition of ligand binding Adrenergic (1 μM ligand conc.) α2A
[8] = 1 μM, inhibition of specific [125I]Aminopotentidine binding, read-out: Binding data (Percentage Inhibition) Histamine Binding (1 μM) H2

Q: `CCC1c2c(c3cc(C)ccc3n2C#Cc2ccc(Cl)cc2)CCN1C` (stereo not shown) [Compound 162, 9-((4-chlorophenyl)ethynyl)-1-ethyl-2,6-dimethyl-2,3,4,9-tetrahydro-1H-pyrido[3,4-b]indole] was tested. Which inhibition at 1 µM [1, 5] did it give?
A: Its inhibition at 1 µM is 85%.

Q: And the inhibition at 1 µM [2, 6]?
A: The inhibition at 1 µM was 101%.

Q: And the inhibition at 1 µM [3, 7]?
A: The inhibition at 1 µM was 76%.

Q: And the inhibition at 1 µM [4, 8]?
A: Its inhibition at 1 µM is 33%.

Q: What does the source list for `Cc1ccc(CCCn2c3c(c4cc(Cl)ccc42)CCN(C)C3)cn1` [Compound 56, 6-chloro-2-methyl-9-(3-(6-methylpyridin-3-yl)propyl)-2,3,4,9-tetrahydro-1H-pyrido[3,4-b]indole]?
A: inhibition at 1 µM [1, 5]: -10%; inhibition at 1 µM [2, 6]: -3%; inhibition at 1 µM [3, 7]: 7%; inhibition at 1 µM [4, 8]: 20%

Q: Which inhibition at 1 µM [1, 5] does the source give for `CCC1c2c(c3cc(C)ccc3n2/C=C(\C)c2ccc(Cl)cc2)CCN1C` (stereo not shown) [Compound 160, 9-(2-(4-chlorophenyl)prop-1-enyl)-1-ethyl-2,6-dimethyl-2,3,4,9-tetrahydro-1H-pyrido[3,4-b]indole] here?
A: Its inhibition at 1 µM is 75%.

Q: What about the inhibition at 1 µM [2, 6] of the same molecule?
A: The inhibition at 1 µM was 103%.

Q: And the inhibition at 1 µM [3, 7]?
A: The inhibition at 1 µM was 51%.

Q: What about the inhibition at 1 µM [4, 8] of the same molecule?
A: Its inhibition at 1 µM is 67%.

Q: `C/C(=C\n1c2c(c3cc(Cl)ccc31)CCN(C)C2)c1ccc(F)cc1` [Compound 90, (E)-6-chloro-9-(2-(4-fluorophenyl)prop-1-enyl)-2-methyl-2,3,4,9-tetrahydro-1H-pyrido[3,4-b]indole] was tested. Which inhibition at 1 µM [1, 5] did it give?
A: Its inhibition at 1 µM is 97%.

Q: And the inhibition at 1 µM ([1]; compound concentration 1 μM, read-out: Percentage inhibition of ligand binding to Adrenergic α2B receptor)?
A: Its inhibition at 1 µM is 97%.

Q: What about the inhibition at 1 µM [2, 6] of the same molecule?
A: Its inhibition at 1 µM is 99%.

Q: What about the inhibition at 0.003 µM ([2]; compound concentration 3 nM, read-out: Percentage inhibition of ligand binding to 5-HT2C receptor) of the same molecule?
A: Its inhibition at 0.003 µM is 22%.

Q: What about the inhibition at 0.01 µM ([2]; compound concentration 10 nM, read-out: Percentage inhibition of ligand binding to 5-HT2C receptor) of the same molecule?
A: Its inhibition at 0.01 µM is 37%.

Q: And the inhibition at 0.03 µM ([2]; compound concentration 0.03 μM, read-out: Percentage inhibition of ligand binding to 5-HT2C receptor)?
A: Its inhibition at 0.03 µM is 65%.

Q: And the inhibition at 0.1 µM ([2]; compound concentration 0.1 μM, read-out: Percentage inhibition of ligand binding to 5-HT2C receptor)?
A: Its inhibition at 0.1 µM is 82%.

Q: What about the inhibition at 0.3 µM ([2]; compound concentration 0.3 μM, read-out: Percentage inhibition of ligand binding to 5-HT2C receptor) of the same molecule?
A: The inhibition at 0.3 µM was 93%.

Q: What about the inhibition at 1 µM ([2]; compound concentration 1 μM, read-out: Percentage inhibition of ligand binding to 5-HT2C receptor) of the same molecule?
A: Its inhibition at 1 µM is 99%.

Q: What about the inhibition at 1 µM [3, 7] of the same molecule?
A: The inhibition at 1 µM was 88%.

Q: And the inhibition at 1 µM ([3]; compound concentration 1 μM, read-out: Percentage inhibition of ligand binding to Adrenergic α2A receptor)?
A: Its inhibition at 1 µM is 88%.

Q: And the inhibition at 1 µM [4, 8]?
A: Its inhibition at 1 µM is 64%.

Q: And the inhibition at 1 µM ([4]; compound concentration 1 μM, read-out: Percentage inhibition of ligand binding to H2 receptor)?
A: Its inhibition at 1 µM is 64%.

Q: What does the source list for `C/C(=C\n1c2c(c3cc(C)ccc31)CCN(C)C2c1ccccc1)c1ccc(Cl)cc1` (stereo not shown) [Compound 164, 9-(2-(4-chlorophenyl)prop-1-enyl)-2,6-dimethyl-1-phenyl-2,3,4,9-tetrahydro-1H-pyrido[3,4-b]indole]?
A: inhibition at 1 µM [1, 5]: 15%; inhibition at 1 µM [2, 6]: 98%; inhibition at 1 µM [3, 7]: 58%; inhibition at 1 µM [4, 8]: 25%

Q: `CC1CCN(C(=O)Cn2c3c(c4cc(Cl)ccc42)CCN(C)C3)CC1` [Compound 38, 2-(6-chloro-1,2,3,4-tetrahydro-2-methylpyrido[3,4-b]indol-9-yl)-1-(4-methylpiperidin-1-vyl)ethanone] was tested. Which inhibition at 1 µM [1, 5] did it give?
A: Its inhibition at 1 µM is 15%.

Q: What about the inhibition at 1 µM [2, 6] of the same molecule?
A: The inhibition at 1 µM was 14%.

Q: And the inhibition at 1 µM [3, 7]?
A: The inhibition at 1 µM was 15%.

Q: And the inhibition at 1 µM [4, 8]?
A: Its inhibition at 1 µM is 3%.

Q: What does the source list for `Cc1ccc2c(c1)c1c(n2CCc2ccc(C(F)(F)F)nc2)CN(C)CC1` [Compound 5, 9-(2-(6-(trifluoromethyl)pyridin-3-yl)ethyl)-2,3,4,9-tetrahydro-2,6-dimethyl-1H-pyrido[3,4-b]indole]?
A: inhibition at 1 µM [1, 5]: 83%; inhibition at 1 µM [2, 6]: 39%; inhibition at 1 µM [3, 7]: 74%; inhibition at 1 µM [4, 8]: 36%
